Measured values from patent publication US20240384350A1, “METHODS OF TREATING CANCER WITH KINASE INHIBITORS” (BOARD OF REGENTS, THE UNIVERSITY OF TEXAS SYSTEM, priority 2021, published 2024).

Experiments:
Experiment in all cases: Ba/F3 drug screening, Cell Titer Glo, IC50 Mut/WT
Assay type in all cases: cell-based
EGFR K757R = molecular target: T1, EGFR K757R (Homo sapiens, UniProt P00533, K757R)
T1 construct: expressed in transfected cells; host or cells: Ba/F3
Procedure: (§1) Data represent the ratio of the IC50 value for a given TKI for cells with a PACC EGFR mutation to the IC50 value for cells with wildtype EGFR.
(§2) Ba/F3 cell generation, drug screening, and IC50 approximations. Ba/F3 cells were obtained as a gift from Dr. Gordon Mills (MD Anderson Cancer Center), and maintained in RPMI (Sigma) containing 10% FBS, 1% penicillin/streptomycin, and 10 ng/ml recombinant mIL-3 (R&D Biosystems). To establish stable Ba/F3 cell lines, Ba/F3 cells were transduced with retroviruses containing mutant EGFR plasmids for 12-24 hours.
(§3) After 48-72 hours of transduction, 2 μg/ml puromycin (Invitrogen) was added to Ba/F3 cell lines in complete RPMI. To select for EGFR positive cell lines, cells were stained with PE-EGFR (Biolegend) and sorted by FACS. After sorting, EGFR positive cells were maintained in RPMI containing 10% FBS, 1% penicillin/streptomycin, and 1 ng/ml EGF to support cell viability. Drug screening was performed as previously described^41,42. Shortly, cells were plated in 384-well plates (Greiner Bio-One) at 2000-3000 cells per well in technical triplicate. Seven different concentrations of TKIs or DMSO vehicle were added to reach a final volume of 40 μL per well. After 72 hours, 11 μL of Cell Titer Glo (Promega) was added to each well. Plates were incubated for a minimum of 10 minutes, and bioluminescence was determined using a FLUOstar OPTIMA plate reader (BMG LABTECH). Raw bioluminescence values were normalized to DMSO control treated cells, and values were plotted in GraphPad Prism. […] Drug screens were performed in technical triplicate on each plate and either duplicate or triplicate biological replicates. […] Statistical differences between groups were determined by ANOVA as described in the figure legends.

EGFR E709K G719S = molecular target: T2, EGFR E709K G719S (Homo sapiens, UniProt P00533, E709K/G719S)
T2 construct: expressed in transfected cells; host or cells: Ba/F3

EGFR L858R/L792H = molecular target: T3, EGFR L858R/L792H (Homo sapiens, UniProt P00533, L792H/L858R)
T3 construct: expressed in transfected cells; host or cells: Ba/F3

[1] = molecular target: T4, EGFR L747_K754del insATSPE (Homo sapiens, UniProt P00533, DEL747-749/K754E); settings: T790M-like-3S, 72 hours
T4 construct: expressed in transfected cells; host or cells: Ba/F3 cells, retroviral pBabe-Puro vector
Procedure: (§4) Data represent the ratio of the IC50 value for a given TKI for cells with a T790M-like-3S EGFR mutation to the IC50 value for cells with wildtype EGFR.
as §2
(§5) After 48-72 hours of transduction, 2 μg/ml puromycin (Invitrogen) was added to Ba/F3 cell lines in complete RPMI. To select for EGFR positive cell lines, cells were stained with PE-EGFR (Biolegend) and sorted by FACS. After sorting, EGFR positive cells were maintained in RPMI containing 10% FBS, 1% penicillin/streptomycin, and 1 ng/ml EGF to support cell viability. Drug screening was performed as previously described^41,42. Shortly, cells were plated in 384-well plates (Greiner Bio-One) at 2000-3000 cells per well in technical triplicate. Seven different concentrations of TKIs or DMSO vehicle were added to reach a final volume of 40 μL per well. After 72 hours, 11 μL of Cell Titer Glo (Promega) was added to each well. Plates were incubated for a minimum of 10 minutes, and bioluminescence was determined using a FLUOstar OPTIMA plate reader (BMG LABTECH). Raw bioluminescence values were normalized to DMSO control treated cells, and values were plotted in GraphPad Prism. […] Drug screens were performed in technical triplicate on each plate and either duplicate or triplicate biological replicates.

EGFR L858R/L718V = molecular target: T5, EGFR L858R/L718V (Homo sapiens, UniProt P00533, L718V/L858R)
T5 construct: host or cells: Ba/F3

EGFR L858R/V834L = molecular target: T6, EGFR L858R/V834L (Homo sapiens, UniProt P00533, L858R/V834L); settings: Classical-Like, 72 hours
T6 construct: expressed in transfected cells; host or cells: Ba/F3 cells, retroviral pBabe-Puro vector
Procedure: (§6) Data represent the ratio of the IC50 value for a given TKI for cells with a classical-like EGFR mutation to the IC50 value for cells with wildtype EGFR.
as §2
(§7) After 48-72 hours of transduction, 2 μg/ml puromycin (Invitrogen) was added to Ba/F3 cell lines in complete RPMI. To select for EGFR positive cell lines, cells were stained with PE-EGFR (Biolegend) and sorted by FACS. After sorting, EGFR positive cells were maintained in RPMI containing 10% FBS, 1% penicillin/streptomycin, and 1 ng/ml EGF to support cell viability. […] Shortly, cells were plated in 384-well plates (Greiner Bio-One) at 2000-3000 cells per well in technical triplicate. Seven different concentrations of TKIs or DMSO vehicle were added to reach a final volume of 40 μL per well. After 72 hours, 11 μL of Cell Titer Glo (Promega) was added to each well. Plates were incubated for a minimum of 10 minutes, and bioluminescence was determined using a FLUOstar OPTIMA plate reader (BMG LABTECH). Raw bioluminescence values were normalized to DMSO control treated cells, and values were plotted in GraphPad Prism. […] Drug screens were performed in technical triplicate on each plate and either duplicate or triplicate biological replicates.

EGFR S720P = molecular target: T7, EGFR S720P (Homo sapiens, UniProt P00533, S720P); settings: Classical-Like, 72 hours
T7 construct: expressed in transfected cells; host or cells: Ba/F3 cells, retroviral pBabe-Puro vector (vector made by GeneScript from EGFR WT)
Procedure: as §6, §2, §7

EGFR L858R T790M L792H = molecular target: T8, EGFR L858R T790M L792H (Homo sapiens, UniProt P00533, L792H/L858R/T790M); settings: T790M-like-3S, 72 hours
T8 construct: expressed in transfected cells; host or cells: Ba/F3

EGFR Ex19del/T790M/G724S = molecular target: T9, EGFR Ex19del/T790M/G724S (Homo sapiens, UniProt P00533, DEL746-750/G724S/T790M); settings: T790M-like-3S, 72 hours
T9 construct: expressed in transfected cells; host or cells: Ba/F3
Procedure: as §4, §2, §5

EGFR Ex19del L718Q = molecular target: T10, EGFR Ex19del L718Q (Homo sapiens, UniProt P00533, DEL746-750/L718Q)
T10 construct: expressed in transfected cells; host or cells: Ba/F3

EGFR L747S = molecular target: T11, EGFR L747S (Homo sapiens, UniProt P00533, L747S)
T11 construct: expressed in transfected cells; host or cells: Ba/F3
Procedure: as §1, §2, §5

EGFR G719S = molecular target: T12, EGFR G719S (Homo sapiens, UniProt P00533, G719S)
T12 construct: expressed in transfected cells; host or cells: Ba/F3

EGFR L858R/C797S = molecular target: T13, EGFR L858R/C797S (Homo sapiens, UniProt P00533, C797S/L858R)
T13 construct: expressed in transfected cells; host or cells: Ba/F3

EGFR S768I/V769L = molecular target: T14, EGFR S768I/V769L (Homo sapiens, UniProt P00533, S768I/V769L)
T14 construct: host or cells: Ba/F3

EGFR Ex19del/C797S = molecular target: T15, EGFR Ex19del/C797S (Homo sapiens, UniProt P00533, C797S/DEL746-750)
T15 construct: expressed in transfected cells; host or cells: Ba/F3

EGFR E709K L858R = molecular target: T16, EGFR E709K L858R (Homo sapiens, UniProt P00533, E709K/L858R); settings: Classical-Like, 72 hours
T16 construct: expressed in transfected cells; host or cells: Ba/F3 cells, retroviral pBabe-Puro vector
Procedure: as §6, §2, §7

EGFR N771dupN G724S = molecular target: T17, EGFR N771dupN G724S (Homo sapiens, UniProt P00533, DUP771-771/G724S); settings: Ex20, 72 hours
T17 construct: expressed in transfected cells; host or cells: Ba/F3 cells, retroviral pBabe-Puro vector (vector made by GeneScript from EGFR G724S, c.2313_2314insAAC)
Procedure: Data represent the ratio of the IC50 value for a given TKI for cells with an ex20ins EGFR mutation to the IC50 value for cells with wildtype EGFR.
as §2, §3

EGFR L718V = molecular target: T18, EGFR L718V (Homo sapiens, UniProt P00533, L718V)
T18 construct: expressed in transfected cells; host or cells: Ba/F3

EGFR S768I = molecular target: T19, EGFR S768I (Homo sapiens, UniProt P00533, S768I)
T19 construct: expressed in transfected cells; host or cells: Ba/F3
Procedure: as §1, §2, §3

EGFR L858R/T790M/L718Q = molecular target: T20, EGFR L858R/T790M/L718Q (Homo sapiens, UniProt P00533, L718Q/L858R/T790M); settings: T790M-like-3R, 72 hours
T20 construct: expressed in transfected cells; host or cells: Ba/F3

EGFR L861Q = molecular target: T21, EGFR L861Q (Homo sapiens, UniProt P00533, L861Q); settings: Classical-Like, 72 hours
T21 construct: expressed in transfected cells; host or cells: Ba/F3 cells, retroviral pBabe-Puro vector

EGFR S784F = molecular target: T22, EGFR S784F (Homo sapiens, UniProt P00533, S784F); settings: Classical-Like, 72 hours
T22 construct: expressed in transfected cells; host or cells: Ba/F3 cells, retroviral pBabe-Puro vector (vector made by GeneScript from EGFR WT)
Procedure: as §6, §2, §7

EGFR G719A/R776C = molecular target: T23, EGFR G719A/R776C (Homo sapiens, UniProt P00533, G719A/R776C)
T23 construct: expressed in transfected cells; host or cells: Ba/F3

## Cc1cc(C(=O)Nc2nc3cccc(Cl)c3n2[C@@H]2CCCCN(C(=O)/C=C/CN(C)C)C2)ccn1 [Nazartinib]
EGFR K757R; Ba/F3 cells, EGFR K757R (PACC), Mut/WT
  ratio of the IC50 value for cells with a PACC EGFR mutation to the IC50 value for cells with wildtype EGFR: 0.3486
EGFR E709K G719S; Ba/F3 cells, EGFR E709K G719S (PACC), Mut/WT
  ratio of the IC50 value for cells with a PACC EGFR mutation to the IC50 value for cells with wildtype EGFR: 0.4195
EGFR L858R/L792H; Ba/F3 cells, EGFR L858R/L792H (PACC), Mut/WT
  ratio of the IC50 value for cells with a PACC EGFR mutation to the IC50 value for cells with wildtype EGFR: 0.3145
[1]
  ratio of IC50 for cells with mutant EGFR to IC50 for cells with wildtype EGFR (Mut/WT): 0.001195
EGFR L858R/L718V; Ba/F3 cells, EGFR L858R/L718V (PACC), Mut/WT
  ratio of the IC50 value for cells with a PACC EGFR mutation to the IC50 value for cells with wildtype EGFR: 1.03
EGFR L858R/V834L
  ratio of IC50 for cells with mutant EGFR to IC50 for cells with wildtype EGFR (Mut/WT): 0.01123
EGFR S720P
  ratio of IC50 for cells with mutant EGFR to IC50 for cells with wildtype EGFR (Mut/WT): 0.005619
EGFR L858R T790M L792H
  ratio of IC50 for cells with mutant EGFR to IC50 for cells with wildtype EGFR (Mut/WT): 0.02884
EGFR Ex19del/T790M/G724S
  ratio of IC50 for cells with mutant EGFR to IC50 for cells with wildtype EGFR (Mut/WT): 0.06117
EGFR Ex19del L718Q; Ba/F3 cells, EGFR Ex19del L718Q (PACC), Mut/WT
  ratio of the IC50 value for cells with a PACC EGFR mutation to the IC50 value for cells with wildtype EGFR: 0.03801
EGFR L747S; Ba/F3 cells, EGFR L747S (PACC), Mut/WT
  ratio of the IC50 value for cells with a PACC EGFR mutation to the IC50 value for cells with wildtype EGFR: 0.06302
EGFR G719S; Ba/F3 cells, EGFR G719S (PACC), Mut/WT
  ratio of the IC50 value for cells with a PACC EGFR mutation to the IC50 value for cells with wildtype EGFR: 0.08165
EGFR L858R/C797S; Ba/F3 cells, EGFR L858R/C797S (PACC), Mut/WT
  ratio of the IC50 value for cells with a PACC EGFR mutation to the IC50 value for cells with wildtype EGFR: 3.46
EGFR S768I/V769L; Ba/F3 cells, EGFR S768I/V769L (PACC), Mut/WT
  ratio of the IC50 value for cells with a PACC EGFR mutation to the IC50 value for cells with wildtype EGFR: 0.2253
EGFR Ex19del/C797S; Ba/F3 cells, EGFR Ex19del/C797S (PACC), Mut/WT
  ratio of the IC50 value for cells with a PACC EGFR mutation to the IC50 value for cells with wildtype EGFR: 3.067
EGFR E709K L858R
  ratio of IC50 for cells with mutant EGFR to IC50 for cells with wildtype EGFR (Mut/WT): 0.01992
EGFR N771dupN G724S
  ratio of IC50 for cells with mutant EGFR to IC50 for cells with wildtype EGFR (Mut/WT): 0.3384
EGFR L718V; Ba/F3 cells, EGFR L718V (PACC), Mut/WT
  ratio of the IC50 value for cells with a PACC EGFR mutation to the IC50 value for cells with wildtype EGFR: 1.157
EGFR S768I; Ba/F3 cells, EGFR S768I (PACC), Mut/WT
  ratio of the IC50 value for cells with a PACC EGFR mutation to the IC50 value for cells with wildtype EGFR: 0.5273
EGFR L858R/T790M/L718Q
  ratio of IC50 for cells with mutant EGFR to IC50 for cells with wildtype EGFR (Mut/WT): 0.7714
EGFR L861Q
  ratio of IC50 for cells with mutant EGFR to IC50 for cells with wildtype EGFR (Mut/WT): 0.03861
EGFR S784F
  ratio of IC50 for cells with mutant EGFR to IC50 for cells with wildtype EGFR (Mut/WT): 0.03107
EGFR G719A/R776C; Ba/F3 cells, EGFR G719A/R776C (PACC), Mut/WT
  ratio of the IC50 value for cells with a PACC EGFR mutation to the IC50 value for cells with wildtype EGFR: 0.05772

## CN(C)C/C=C/C(=O)Nc1cc2c(Nc3ccc(Cl)c(Br)c3)ncnc2cn1 [Tarlox-TKI]
EGFR K757R; PACC, K757R, Ba/F3, 72 hours
  ratio of IC50 for cells with mutant EGFR to IC50 for cells with wildtype EGFR (Mut/WT): 0.3019
EGFR E709K G719S; PACC, E709K G719S, Ba/F3, 72 hours
  ratio of IC50 for cells with mutant EGFR to IC50 for cells with wildtype EGFR (Mut/WT): 0.06517
EGFR L858R/L792H; PACC, L858R/L792H, Ba/F3, 72 hours
  ratio of IC50 for cells with mutant EGFR to IC50 for cells with wildtype EGFR (Mut/WT): 0.346
[1]
  ratio of IC50 for cells with mutant EGFR to IC50 for cells with wildtype EGFR (Mut/WT): 4.874
EGFR L858R/L718V; PACC, L858R/L718V, Ba/F3, 72 hours
  ratio of IC50 for cells with mutant EGFR to IC50 for cells with wildtype EGFR (Mut/WT): 0.3578
EGFR L858R/V834L
  ratio of IC50 for cells with mutant EGFR to IC50 for cells with wildtype EGFR (Mut/WT): 0.002571
EGFR S720P
  ratio of IC50 for cells with mutant EGFR to IC50 for cells with wildtype EGFR (Mut/WT): 0.02412
EGFR L858R T790M L792H
  ratio of IC50 for cells with mutant EGFR to IC50 for cells with wildtype EGFR (Mut/WT): 5.198
EGFR Ex19del/T790M/G724S
  ratio of IC50 for cells with mutant EGFR to IC50 for cells with wildtype EGFR (Mut/WT): 4.197
EGFR Ex19del L718Q; PACC, Ex19del L718Q, Ba/F3, 72 hours
  ratio of IC50 for cells with mutant EGFR to IC50 for cells with wildtype EGFR (Mut/WT): 0.09651
EGFR L747S; PACC, L747S, Ba/F3, 72 hours
  ratio of IC50 for cells with mutant EGFR to IC50 for cells with wildtype EGFR (Mut/WT): 0.1733
EGFR G719S; PACC, G719S, Ba/F3, 72 hours
  ratio of IC50 for cells with mutant EGFR to IC50 for cells with wildtype EGFR (Mut/WT): 0.002634
EGFR L858R/C797S; PACC, L858R/C797S, Ba/F3, 72 hours
  ratio of IC50 for cells with mutant EGFR to IC50 for cells with wildtype EGFR (Mut/WT): 0.7434
EGFR S768I/V769L; PACC, S768I/V769L, Ba/F3, 72 hours
  ratio of IC50 for cells with mutant EGFR to IC50 for cells with wildtype EGFR (Mut/WT): 0.713
EGFR Ex19del/C797S; PACC, Ex19del/C797S, Ba/F3, 72 hours
  ratio of IC50 for cells with mutant EGFR to IC50 for cells with wildtype EGFR (Mut/WT): 0.2272
EGFR E709K L858R
  ratio of IC50 for cells with mutant EGFR to IC50 for cells with wildtype EGFR (Mut/WT): 0.005792
EGFR N771dupN G724S
  ratio of IC50 for cells with mutant EGFR to IC50 for cells with wildtype EGFR (Mut/WT): 0.8301
EGFR L718V; PACC, L718V, Ba/F3, 72 hours
  ratio of IC50 for cells with mutant EGFR to IC50 for cells with wildtype EGFR (Mut/WT): 1.421
EGFR S768I; PACC, S768I, Ba/F3, 72 hours
  ratio of IC50 for cells with mutant EGFR to IC50 for cells with wildtype EGFR (Mut/WT): 0.3863
EGFR L858R/T790M/L718Q
  ratio of IC50 for cells with mutant EGFR to IC50 for cells with wildtype EGFR (Mut/WT): 304.5
EGFR L861Q
  ratio of IC50 for cells with mutant EGFR to IC50 for cells with wildtype EGFR (Mut/WT): 0.05346
EGFR S784F
  ratio of IC50 for cells with mutant EGFR to IC50 for cells with wildtype EGFR (Mut/WT): 0.01816
EGFR G719A/R776C; PACC, G719A/R776C, Ba/F3, 72 hours
  ratio of IC50 for cells with mutant EGFR to IC50 for cells with wildtype EGFR (Mut/WT): 0.03266
